We go through one compound from ChEMBL document CHEMBL3638641, “Disubstituted heteroaryl-fused pyridines” (2014).

pKd: −log10 of the molar value.

The target of one experiment is T1, Orexin receptor type 2 (Homo sapiens, UniProt O43614).
T1 sequence (O43614 whole entry): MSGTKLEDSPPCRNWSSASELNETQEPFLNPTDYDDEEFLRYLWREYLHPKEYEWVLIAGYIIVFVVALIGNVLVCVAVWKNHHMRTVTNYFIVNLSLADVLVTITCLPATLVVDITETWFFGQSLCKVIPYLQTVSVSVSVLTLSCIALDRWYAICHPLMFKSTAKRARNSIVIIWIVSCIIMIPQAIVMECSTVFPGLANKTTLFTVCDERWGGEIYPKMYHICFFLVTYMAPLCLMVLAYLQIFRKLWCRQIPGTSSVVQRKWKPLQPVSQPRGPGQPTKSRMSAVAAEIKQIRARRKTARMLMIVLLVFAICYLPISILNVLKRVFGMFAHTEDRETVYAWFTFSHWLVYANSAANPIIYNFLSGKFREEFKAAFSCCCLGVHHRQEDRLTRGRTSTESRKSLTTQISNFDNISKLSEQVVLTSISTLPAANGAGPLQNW
As to the kind of experiment: (§1) Radioligand Binding Assay I : For crude cell membrane preparations, cells (CHO, Chinese hamster ovary or HEK, human embryonic kidney) expressing human orexin 1 or human orexin 2 receptors, were washed with HEPES (10 mM, pH 7.5), scraped off the culture plates with the same buffer, and centrifuged at 4 C for 5 min at 2500 x g. The cell pellet was either stored at -80 C or used directly. Before the experiments, cell membranes were re-suspended in binding assay buffer (10 mM HEPES, 0.5% (w/v) bovine serum albumin, pH 7.5) by homogenisation with a Polytron homogeniser at 50 Hz for 20 s. In competition experiments, cell homogenates (150μΙ) were incubated in assay buffer (10 mM HEPES, pH 7.5, 0.5 % (w/v) bovine serum albumin, 5 mM MgCI2, 1 mMCaCI2, and tween 0.05%) for 1 h at room temperature with about 100 pM of the radioligand ([125l]orexin A, 2100 Ci/mmole, 50 μΙ), and with various concentrations of compounds of the invention (50 μΙ) in triplicates.

In experiment [1] the target is T2, Orexin/Hypocretin receptor type 1 (Homo sapiens, UniProt O43613).
T2 sequence (O43613 whole entry): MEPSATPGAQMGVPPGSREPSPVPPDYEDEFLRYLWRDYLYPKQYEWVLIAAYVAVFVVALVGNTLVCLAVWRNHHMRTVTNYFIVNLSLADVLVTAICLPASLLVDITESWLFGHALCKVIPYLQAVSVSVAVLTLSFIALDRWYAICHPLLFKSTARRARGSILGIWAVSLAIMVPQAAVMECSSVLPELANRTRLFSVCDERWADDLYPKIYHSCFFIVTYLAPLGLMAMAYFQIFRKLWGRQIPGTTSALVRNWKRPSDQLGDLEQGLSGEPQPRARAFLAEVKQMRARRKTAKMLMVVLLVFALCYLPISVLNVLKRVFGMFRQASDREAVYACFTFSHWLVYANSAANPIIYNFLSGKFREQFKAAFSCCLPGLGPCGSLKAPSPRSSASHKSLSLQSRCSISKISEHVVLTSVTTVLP
The experiment is described as §1.

Turning to `C[C@H](NC(=O)COc1cc(C(F)(F)F)c2c(-c3cccc(Cl)c3)nn(C)c2n1)c1ccccc1`, the results for the pKd (on Orexin receptor type 2; in experiment [1]) were 6.32 and 6.94, respectively.
